From ChEMBL document CHEMBL1201862, “PubChem BioAssay data set” (2004) come the findings set out here.

Common to all, as to assay: inhibition of tumour cell growth, NCI panel, 48 h
The test system of assay [1] is HCT-15.
The test system of assay [2] is NCI-H23.
The test system of assay [3] is COLO 205.
Assay [4] has as its system MOLT-4.
For assay [5], the system named is NCI-H226.
Assay [6] deals with Malme-3M.
The test system of assay [7] is SF-539.
In assay [8] the test system is HCC 2998.
The subject of assay [9] is UACC-257.
Assay [10] concerns OVCAR-5.
For assay [11], the system named is SN12C.
Assay [12] concerns HOP-92.
For assay [13], the system named is IGROV-1.
In assay [14] the test system is NCI-H522.
Assay [15] relates to LOX IMVI.
Assay [16] has as its system A549.
In assay [17] the test system is HT-29.
The subject of assay [18] is A498.
Assay [19] relates to M14.
Assay [20] has as its system ACHN.

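Growth conditions: 96-well plates. Treatment: test compound, 48 hours, 5 concentrations. Analysis: linear interpolation between bracketing concentrations; unreached endpoints set to highest concentration. GI50: concentration for 50% inhibition of growth.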 The source made the active and inactive calls. Cut-off read from the data, not from the text of the source: active = GI50 up to about 1.1 µM and inactive = higher.

Regarding `Cc1nc(O)nc(O)c1/C=C/C(=O)O`, the GI50 in assay [1] was more than 1000 µM; in [2], > 1000 µM (inactive); in [3], > 1000 µM (inactive); in assay [4] it was > 1000 µM (inactive); in assay [5], > 1000 µM (inactive); in [6] it was > 1000 µM (inactive). The GI50 was > 1000 µM (inactive) in assay [7]; > 1000 µM (inactive) in assay [8]; > 1000 µM (inactive) in [9]; > 891 µM (inactive) in assay [10]; > 1000 µM (inactive) in [11]; 56.6 µM (inactive) in assay [12]. The GI50 in assay [13], in assay [14], in assay [15], in assay [16], in [17] and in assay [18] was > 1000 µM (inactive) throughout.
With `Cc1cc(NC(=S)Nc2ccccc2)c(NC(=S)Nc2ccccc2)cc1C`, the GI50 in [1] is 13.8 µM; in assay [2], 37.2 µM (inactive); in [3] it was 26.1 µM (inactive); in [4] it was 12.8 µM (inactive); in assay [5], 47.6 µM (inactive); in assay [6], 37.8 µM (inactive). The GI50 in assay [7] was 16 µM (inactive); in assay [8], 20.6 µM (inactive); in assay [9] it was 44 µM (inactive); in assay [10] it was > 65 µM (inactive); in assay [11] it was 40.4 µM (inactive); in assay [12] it was 41.9 µM (inactive). Further, the GI50 in assay [13] is 22.8 µM (inactive); in assay [14] it was 7.78 µM (inactive); in [15] it was 39.4 µM (inactive); in [16] it was 23.3 µM (inactive); in assay [17], 36.6 µM (inactive); in assay [18], 36.1 µM (inactive).
Consider `CCC1C(C#N)=C(O)NC(O)=C1C#N`, for which the GI50 in assay [1] is more than 100 µM; in assay [2], > 100 µM (inactive); in assay [3] it was > 100 µM (inactive); in [5] it was > 100 µM (inactive); in assay [6], > 100 µM (inactive); in assay [19], > 100 µM (inactive). For the same molecule, the GI50 in assay [7], in assay [8], in [9], in assay [10], in [11] and in assay [12] was > 100 µM (inactive) in each case. Also, the GI50 in assay [13], in assay [14], in [15], in assay [16], in assay [20] and in assay [17] was > 100 µM (inactive) throughout. Moreover, the GI50 in assay [18] is > 100 µM (inactive).
As to `C=C1C(=O)OC2C[C@@]3(C)CCCC(=C)C3CC12` (stereo partly specified), the GI50 in assay [1] was 10.9 µM; in assay [2], 13.7 µM (inactive); in assay [3], 2.93 µM (inactive); in assay [5], 12.9 µM (inactive); in assay [6], 3.52 µM (inactive); in assay [19], 6.34 µM (inactive). Moreover, the GI50 in [7] is 1.95 µM (inactive); in assay [8] it was 13.6 µM (inactive); in assay [9], 10.3 µM (inactive); in [10] it was 19.5 µM (inactive); in [11], 4.44 µM (inactive); in [12], 4.26 µM (inactive). The GI50 in [13] was 19 µM (inactive); in [14], 1.9 µM (inactive); in assay [15] it was 1.22 µM (inactive); in assay [16], 12.2 µM (inactive); in assay [20], 14 µM (inactive); in [17], 7.14 µM (inactive). In addition, the GI50 in assay [18] is 6.89 µM (inactive).
Take `CC1=C2C(O)C(C(C)C(=O)N(C)C)CCC2(C)C=CC1=O` (stereo unspecified): the GI50 in assay [1] was more than 100 µM; in [2], > 100 µM (inactive); in assay [3] it was > 100 µM (inactive); in [4] it was > 100 µM (inactive); in [5], > 100 µM (inactive); in [7] it was > 100 µM (inactive). The GI50 in assay [8], in [9], in assay [10], in [11], in assay [12] and in assay [13] was > 100 µM (inactive) in each case. For the same molecule, the GI50 in assay [14], in assay [15], in assay [16], in [17] and in assay [18] was > 100 µM (inactive) each time.
Take `CC1C(=O)C(C)C(c2ccco2)N(N=O)C1c1ccco1` (stereo unspecified): the GI50 in assay [1] was more than 100 µM; in assay [2], > 100 µM (inactive); in assay [3], > 100 µM (inactive); in assay [4], > 100 µM (inactive); in assay [5], > 100 µM (inactive); in [6], > 100 µM (inactive). Further, the GI50 in [7] is > 100 µM (inactive); in assay [8], > 100 µM (inactive); in assay [9] it was > 100 µM (inactive); in assay [10], > 100 µM (inactive); in assay [11], > 100 µM (inactive); in assay [12] it was > 68.4 µM (inactive). Moreover, the GI50 in assay [13], in assay [14], in assay [15], in [16], in assay [17] and in assay [18] was > 100 µM (inactive) throughout.
As to `O=C(CCN1CCOCC1)/C(=C/c1ccccc1)c1ccccc1`, the GI50 in assay [1] was 2.19 µM; in assay [2] it was 4.15 µM (inactive); in assay [3], 3.89 µM (inactive); in [4], 2.03 µM (inactive); in assay [5], 7.55 µM (inactive); in assay [6] it was 2.24 µM (inactive). Also, the GI50 in [7] was 2.92 µM (inactive); in assay [8], 15 µM (inactive); in assay [9] it was 2.74 µM (inactive); in [10] it was 16.6 µM (inactive); in assay [11], 4.15 µM (inactive); in [12] it was 3.5 µM (inactive). Further, the GI50 in assay [13] is 9.93 µM (inactive); in assay [14] it was 1.77 µM (inactive); in assay [15] it was 2.61 µM (inactive); in assay [16], 15.6 µM (inactive); in assay [17], 4.49 µM (inactive); in assay [18] it was 10.1 µM (inactive).
Take `CCOC(=O)CCN1C(=O)c2c(NC(=O)C(=O)O)cccc2S1(=O)=O`: the GI50 is more than 100 µM in [1]; > 100 µM (inactive) in assay [2]; > 100 µM (inactive) in assay [3]; > 100 µM (inactive) in assay [4]; > 100 µM (inactive) in assay [5]; > 100 µM (inactive) in [6]. The GI50 in [19], in assay [8], in [9], in assay [10], in assay [11] and in assay [12] was > 100 µM (inactive) each time. In addition, the GI50 in assay [13], in assay [14], in [15], in assay [16], in assay [20] and in [17] was > 100 µM (inactive) each time. Besides, the GI50 in assay [18] is > 100 µM (inactive).
